# Results from publication PMC6009976, “Pharmacophore-based design and discovery of (−)-meptazinol carbamates as dual modulators of cholinesterase and amyloidogenesis” (Journal of Enzyme Inhibition and Medicinal Chemistry, 2017).
# Read-outs that look alike come from different tables or passages of the source. Marks after values point to notes of the source that are not given here.
# Columns and labels:
# mice brain AChE = conditions: training set, read-out: Experimental IC50; cited from earlier work
# [1] = cited from earlier work
# [2] = target: T1, AChE (mice brain homogenate) (Mus musculus, UniProt P21836); conditions: cited from earlier work
# T1 construct: a solution of AChE (1:9 w/v homogenate in 0.1 M phosphate buffer (PB), pH 7.4); from tissue; host or cells: mouse brain homogenate
# T1 sequence (P21836 32-614): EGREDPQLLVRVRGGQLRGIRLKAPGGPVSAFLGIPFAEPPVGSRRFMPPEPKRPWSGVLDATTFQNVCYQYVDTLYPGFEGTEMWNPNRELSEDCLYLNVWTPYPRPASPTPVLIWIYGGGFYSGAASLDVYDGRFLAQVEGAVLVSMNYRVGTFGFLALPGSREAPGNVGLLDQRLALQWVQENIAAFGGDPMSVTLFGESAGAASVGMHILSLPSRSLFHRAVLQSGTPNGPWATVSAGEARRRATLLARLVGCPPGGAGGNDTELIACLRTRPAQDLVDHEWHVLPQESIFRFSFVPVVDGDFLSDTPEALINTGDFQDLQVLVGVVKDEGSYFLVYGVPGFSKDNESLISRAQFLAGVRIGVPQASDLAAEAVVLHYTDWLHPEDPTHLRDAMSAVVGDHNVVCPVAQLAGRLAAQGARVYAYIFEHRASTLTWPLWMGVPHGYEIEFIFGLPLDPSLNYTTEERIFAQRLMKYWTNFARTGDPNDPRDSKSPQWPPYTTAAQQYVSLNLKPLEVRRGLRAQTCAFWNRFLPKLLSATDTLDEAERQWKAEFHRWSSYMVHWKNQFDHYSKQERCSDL
# [3] = target: T1, AChE (mice brain homogenate); test: In vitro AChE inhibition assay (Ellman's method); type: biochemical; conditions: for Selectivity for AChE (IC50 for BChE divided by IC50 for AChE): mice serum BChE, (−)-meptazinol from values of ref 17
# Description: (§1) Inhibitory activities of the compounds toward AChE and BChE were evaluated by Ellman’s method, employing mice brain homogenate as source of AChE and mice serum as source of BChE. […] After incubation for 20 min at 37 °C, Ellman’s reagent (300 µL, 5,5′-dithiobis(2-nitrobenzoic acid) (DTNB), 0.5 mM in 0.1 M PB, pH 7.4) and acetylthiocholine iodide (ATCh) (300 µL of 0.5 mM water solution) were added successively, and percent inhibition was determined by absorbance changes at 412 nm detected by UV spectrophotometry compared with control. BChE inhibition assay was similarly carried out using butyrylthiocholine iodide (BTCh) (0.5 mM) as the substrate and BChE (1:19 v/v serum in 0.1 M PB, pH 7.4) as the enzyme source.
# [4] = system: Aβ40/Aβ42 in SH-SY5Y-APP695 cells; test: Quantification of Aβ40/Aβ42 by ELISA in cell culture medium; type: cell-based, human; conditions: for Reduction of Aβ42 level / Level of Aβ40: 50 µM; for Level of Aβ40: data not shown
# Description: (§2) Human neuroblastoma SH-SY5Y cells transfected with wild-type APP695 gene (SH-SY5Y-APP695)[44] of 5 × 10^4/well (SH-SY5Y-APP695 kindly provided by Prof. Shengdi Chen, Ruijin Hospital, Shanghai Jiao Tong University School of Medicine) were plated in 200 µL culture medium (DMEM/F12, 10% Fetal Bovine Serum, 300 µg/mL G418, 100 U/mL penicillin + 100 µg/mL streptomycin) and incubated for 48 h at 37 °C in 5% CO2. Compounds 42 and 43 dissolved in culture medium were applied to the cells and incubated at 37 °C in 5% CO2 for 16 h. The cells were fixed and permeabilized. Mouse anti-APP monoclonal antibody N-terminus (MAB348, CHEMICON) and Goat anti-Mouse IgG conjugated to Alexa Fluor 555 were used as primary antibody and secondary antibody to detect APP while Hoechst Dye was used to stain nucleus simultaneously. KineticScan HCS System was employed to automatically find, focus, image, and analyze the cells on double-fluorescence channel guided by Target Activation Bioapplication. Fluorescence Unit of APP versus that of nucleus was used to evaluate the expression of APP, in order to balance the background.
# The cell culture medium was collected and added with phenylmethylsulfonyl fluoride (PMSF) to the final concentration of 0.1%. The concentration of Aβ40/Aβ42 in the medium was measured by Human/Rat βAmyloid (40/42) ELISA Kit Wako and calculated according to the standard line.
# in vivo = conditions: both, Kunming, mouse, in vivo
# Description: (§3) Acute toxicity was evaluated in mice of both sexes (20–25 g Kunming mice from experimental animal center of Shanghai Jiao Tong University School of Medicine). All animals were housed in plastic cages with food and water ad libitum and maintained on a 12/12 h light/dark cycle at 22 ± 1 °C. […] Compounds 42 and 43 were dissolved in a 1:10 propylene glycol-normal saline mixture at 0.1 mol/L and then diluted to the final stepwise concentrations with normal saline. Each concentration of the compound was orally or intraperitoneally administered to a group of 10 animals. After two weeks of observation, the lethal rate for each group was measured. A 95% confidence interval for 42 or 43 after oral or intraperitoneal administration was calculated by Bliss method.
# Kunming mice = test: in vivo; conditions: mice; as doses escalate
# Description: as §3
# [5] = system: APP in SH-SY5Y-APP695 cells; test: Quantification of APP by high content screening; type: cell-based, human; conditions: 16 h; for Reduction of intracellular APP level: 50 µM
# Description: as §2
# BChE (mice serum) = target: T2, BChE (mice serum) (Mus musculus, UniProt Q03311); test: In vitro BChE inhibition assay (Ellman's method); type: biochemical; conditions: read-out: IC50 ± SEM BChE
# T2 construct: BChE (1:19 v/v serum in 0.1 M PB, pH 7.4) as the enzyme source; from tissue; host or cells: mouse serum
# Description: as §1
# rHuAChE = rHuAChE (Homo sapiens, UniProt P22303); test: Determination of the enzyme kinetic parameters Km and Vmax; type: biochemical; conditions: for Type of AChE inhibition: Lineweaver–Burk plots, decreased Vmax, unvaried Km
# Description: 10 µL inhibitors of different concentrations and 50 µL rHuAChE enzyme solution of 0.5 U/mL were mixed and incubated for 20 min, then 75 µL of DTNB solution and 100 µL of ATCh solution (concentration ranging from 0.057 mM to 0.2 mM) were added to the mixture. Enzyme activity was determined right after ATCh was added by modified Ellman’s spectrophotometrical method. The Km and Vmax values for AChE inhibition were calculated by regression analysis of Lineweaver–Burk plots (1/velocity versus 1/[substrate]).
# [6] = target: T3, rHuAChE immobilized on EDA CIM disk (Homo sapiens, UniProt P22303); test: Carbamoylation and decarbamoylation rate constants on AChE immobilized disk; type: biochemical; conditions: for Kd: inhibitor 50 and 100 nM; for Carbamoylation half-time: inhibitor 50 nM
# Description: The EDA CIM disk was first connected to a syringe pump and equilibrated with 10 column volumes (CV) of triple-distilled water and 10 CVs of 0.5 M Na-PB (pH 8.0). The flow rate was set at 0.5 mL/min. Then, the disk was activated by a 1% glutaraldehyde solution in PB (0.1 M, pH 7.4) (in the dark, 12 h, 4 °C). The activated disk was washed with 10 CVs of PB. 2 mL of rHuAChE in PB (10 U/mL) was then added into the column and left to react overnight (4 °C). The Schiff bases were reduced by 5 mL of 0.1 M sodium triacetoxyborohydride (STAB) in PB (2 h at room temperature) and 5 mL of 0.2 M monoethanolamine in PB (3 h at room temperature)[39]. The column was connected to the liquid chromatography system and equilibrated with a mobile phase consisting of 0.5 M NaCl and 10^−4 M DTNB in PB (buffer A) for 10 min. Reference enzyme activity was assessed by injecting 20 µL of saturating substrate (ATCh, 50 mM). The peak area was calculated and noted as A0. Then, the mobile phase was switched to the one containing selected concentrations of inhibitor (carbamoylation phase). Aliquots of 20 µL of saturating substrate were injected every 10–20 min and the time-dependent decreasing of peak area (Ai) was monitored down to a plateau. Once a constant plateau was reached, mobile phase was switched to buffer A again (decarbamoylation phase). Aliquots of substrate were kept injecting into the system to monitor the recovery of AChE activity over time. […] The experiment was carried out for two different concentrations of 42 and 43 (50 and 100 nM). The process of AChE carbamoylation and decarbamoylation is generally described as Scheme 1[40–42].
# Calculation of ki and k3 was performed by applying Perola’s mathematical equation[43]. The affinity of the inhibitors toward the enzyme (KD) was calculated following Equation (1). (1) […]
# [7] = target: T3, rHuAChE immobilized on EDA CIM disk; conditions: cited from earlier work
# [8] = system: Aβ40/Aβ42 in SH-SY5Y-APP695 cells; conditions: 50 µM; cited from earlier work
# [9] = system: APP in SH-SY5Y-APP695 cells; conditions: 50 µM; cited from earlier work
# [10] = system: AChE from human erythrocytes; conditions: human erythrocyte AChE; read-out: IC50 ± SEM AChE; cited from earlier work
# human serum BChE = conditions: read-out: IC50 ± SEM BChE; cited from earlier work
# [11] = dissociation (decarbamoylation) constant, Mean ± SD, n = 6
# [12] = inhibit (carbamoylation) constant, Mean ± SD, n = 6
# [13] = reference compound to verify the disk
# Chain of rHuAChE (P22303 32-614): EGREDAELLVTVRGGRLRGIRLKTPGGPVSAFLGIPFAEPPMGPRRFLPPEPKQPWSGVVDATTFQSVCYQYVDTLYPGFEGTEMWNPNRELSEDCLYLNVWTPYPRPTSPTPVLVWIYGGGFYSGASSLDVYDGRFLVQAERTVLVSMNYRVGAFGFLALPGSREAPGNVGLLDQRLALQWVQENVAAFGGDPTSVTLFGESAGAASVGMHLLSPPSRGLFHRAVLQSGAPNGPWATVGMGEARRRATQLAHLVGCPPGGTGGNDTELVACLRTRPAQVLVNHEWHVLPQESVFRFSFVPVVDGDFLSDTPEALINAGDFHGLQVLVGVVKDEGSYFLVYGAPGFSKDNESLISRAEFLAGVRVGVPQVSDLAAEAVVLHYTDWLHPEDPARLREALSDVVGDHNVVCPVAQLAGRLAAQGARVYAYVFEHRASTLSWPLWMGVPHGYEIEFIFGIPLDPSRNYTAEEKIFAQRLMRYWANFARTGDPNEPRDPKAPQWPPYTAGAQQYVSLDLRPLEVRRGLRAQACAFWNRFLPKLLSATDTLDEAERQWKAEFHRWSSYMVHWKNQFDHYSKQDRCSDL
# T3 sequence (P22303 32-614): as above
# T2 sequence (Q03311 30-603): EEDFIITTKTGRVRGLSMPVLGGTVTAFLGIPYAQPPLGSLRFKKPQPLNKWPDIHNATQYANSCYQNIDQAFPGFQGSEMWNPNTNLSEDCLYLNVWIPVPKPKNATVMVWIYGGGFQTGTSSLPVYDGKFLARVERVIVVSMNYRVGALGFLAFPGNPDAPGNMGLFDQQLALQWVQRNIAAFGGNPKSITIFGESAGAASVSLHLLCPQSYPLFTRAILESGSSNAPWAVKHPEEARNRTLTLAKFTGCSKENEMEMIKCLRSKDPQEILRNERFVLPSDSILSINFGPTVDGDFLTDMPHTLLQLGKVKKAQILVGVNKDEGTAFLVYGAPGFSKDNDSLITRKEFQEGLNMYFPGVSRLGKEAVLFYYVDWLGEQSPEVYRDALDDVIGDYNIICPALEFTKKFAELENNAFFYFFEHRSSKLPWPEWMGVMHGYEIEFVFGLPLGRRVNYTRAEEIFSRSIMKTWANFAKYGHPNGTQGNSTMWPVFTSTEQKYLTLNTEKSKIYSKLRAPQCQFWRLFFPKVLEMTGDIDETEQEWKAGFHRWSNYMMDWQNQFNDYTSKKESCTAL
SMILES,LD50 ([1]; p.o.),Selectivity for AChE (IC50 for BChE divided by IC50 for AChE) ([3]; mice brain AChE),Reduction of Aβ42 level ([4]; 16 h),Level of Aβ40 [4],IC50 [3],Fold increase in inhibition of mice brain AChE compared with (−)-meptazinol ([3]; mice brain AChE),LD50 (in vivo; ip),LD50 (in vivo; po),Peripheral cholinergic side effects observed (Kunming mice),Reduction of intracellular APP level [5],IC50 (BChE (mice serum)),Type of AChE inhibition (rHuAChE),"Kd ([6]; Mean ± SD, n = 6)","k3 [6, 11]","ki [6, 12]",Carbamoylation half-time [6],also measured
CC[C@@]1(c2cccc(O)c2)CCCCN(C)C1 [(−)-Meptazinol],–,0.37,–,–,–,–,–,–,–,–,–,–,–,–,–,–,IC50 [2]: 41000 nM
"CC[C@@]1(c2cccc(OC(=O)Nc3ccccc3)c2)CCCCN(C)C1 [Compound 43, (S)-3-(3-ethyl-1-methylazepan-3-yl)phenyl phenylcarbamate]",–,2.1,51.9%,unchanged,31.6 ± 3.5 nM,1300,45 mg/kg,73 mg/kg,"salivation, twitch, and incontinence",26.9%,67.1 ± 23.7 nM,uncompetitive inhibition,108 nM,(2.18 ± 0.12) × 10^−2 min^−1,(2.12 ± 0.46) × 10^5 M^−1min^−1,20.3 min,"Decrease of Aβ42 level ([4]; 5 µM, 16 h): 30.5%; Times less potent than phenserine in AChE inhibition ([3]; against phenserine value of ref 22): 1.3; Decrease of APP level ([5]; 5 µM): 20.0%; Decrease of Vmax (rHuAChE; inhibitor 25 nM): 10%; Vmax-app (rHuAChE; inhibitor 25 nM): 17.84 µM/min; Decrease of Vmax (rHuAChE; inhibitor 50 nM): 25%; Vmax-app (rHuAChE; inhibitor 50 nM): 14.94 µM/min"
"CNC(=O)Oc1ccc2c(c1)[C@]1(C)CCN(C)[C@@H]1N2C [Compound 1, (3aS)-(−)-physostigmine]",4.5 (p.o.)^h mg/kg,–,–,–,–,–,–,–,–,–,–,–,–,–,–,–,"Carbamoylation half-time [7]: 3.9 min; k3 [6, 13]: (1.94 ± 0.36) × 10^−2 min^−1; ki [6, 13]: (4.78 ± 1.13) × 10^5 M^−1 min^−1"
"CN1CC[C@@]2(C)c3cc(OC(=O)Nc4ccccc4)ccc3N(C)[C@@H]12 [Compound 5, Phenserine]",–,–,–,–,–,–,–,–,–,–,–,–,–,–,–,–,Decrease of total Aβ [8]: 31%; Decrease of APP level [9]: 40%; IC50 [10]: 24 ± 6 nM; IC50 (human serum BChE): 1300 ± 85 nM; LD50 ([1]; i.p.): 25 (i.p.)^i mg/kg
"CC[C@@]1(c2cccc(OC(=O)N(C)C)c2)CCCCN(C)C1 [Compound 42, (S)-3-(3-ethyl-1-methylazepan-3-yl)phenyl dimethylcarbamate]",–,0.46,34.0%,unchanged,6.93 ± 2.45 nM,5900,1.4 mg/kg,12 mg/kg,"salivation, twitch, and incontinence",23.5%,3.17 ± 1.34 nM,uncompetitive inhibition,30.2 nM,(1.35 ± 0.31) × 10^−2 min^−1,(4.47 ± 1.21) × 10^5 M^−1min^−1,23.5 min,AChE inhibitory potency relative to rivastigmine (times more potent) ([3]; mice brain AChE): about 790; Decrease of Vmax (rHuAChE; inhibitor 100 nM): 18%; Vmax-app (rHuAChE; inhibitor 100 nM): 28.73 µM/min; Decrease of Vmax (rHuAChE; inhibitor 250 nM): 29%; Vmax-app (rHuAChE; inhibitor 250 nM): 24.70 µM/min
